Legend:
Type in all cases: biochemical
FAAH [1] = target: FAAH (Mus musculus (Mouse), UniProt O08914); assay: In vitro competitive activity-based protein profiling, mouse proteomes (brain membrane fraction or cell lysates); settings: mouse proteome, read-out: FAAH % inh. 1 μM (mouse)
Description: (§1) In Vitro Competitive Activity-Based Protein Profiling.
(§2) Proteomes (mouse brain membrane fraction or cell lysates for mouse assays; human prefrontal cortex or PC3 cell membrane fractions for human assays) (50 μL, 1.0 or 2.0 mg/mL total protein concentration) were preincubated with varying concentrations of inhibitors at 37° C. After 30 min, FP-Rh or JW912 or HT-01 (1.0 μL, 50 μM in DMSO) was added and the mixture was incubated for another 30 min at 37° C. Reactions were quenched with SDS loading buffer (15 μL-4×) and run on SDS-PAGE. Following gel imaging, serine hydrolase activity was determined by measuring fluorescent intensity of gel bands corresponding to MAGL and FAAH using ImageJ 1.43u software.

MAGL [2] = target: MAGL (Mus musculus (Mouse), UniProt O35678); assay: as above; settings: mouse proteome, read-out: MAGL % inh. 1 μM (mouse)
Description: as §1, §2

FAAH [3] = target: FAAH (Homo sapiens (Human), UniProt O00519); assay: In vitro competitive activity-based protein profiling, human proteomes (prefrontal cortex or PC3 cell membrane fractions); settings: human proteome; for inhibition at 1 µM: read-out: FAAH % inh. 1 μM (human)
Description: as §1, §2

MAGL [4] = target: MAGL (Homo sapiens (Human), UniProt Q99685); assay: as above; settings: human proteome; for inhibition at 10 µM: read-out: MAGL % inh. (human) @ 10 μM; for inhibition at 1 µM: read-out: MAGL % inh. 1 μM (human)
Description: as §1, §2

Sequence of MAGL (Mus musculus (Mouse), UniProt O35678) (O35678 whole entry): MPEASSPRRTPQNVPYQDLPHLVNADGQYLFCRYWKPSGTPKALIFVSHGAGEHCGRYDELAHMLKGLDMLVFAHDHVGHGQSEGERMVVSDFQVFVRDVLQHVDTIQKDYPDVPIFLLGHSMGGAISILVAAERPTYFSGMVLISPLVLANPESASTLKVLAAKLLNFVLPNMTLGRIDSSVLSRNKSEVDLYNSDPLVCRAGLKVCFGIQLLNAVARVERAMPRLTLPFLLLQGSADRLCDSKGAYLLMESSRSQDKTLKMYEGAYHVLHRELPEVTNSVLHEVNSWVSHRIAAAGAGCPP
Sequence of FAAH (Homo sapiens (Human), UniProt O00519) (O00519 whole entry): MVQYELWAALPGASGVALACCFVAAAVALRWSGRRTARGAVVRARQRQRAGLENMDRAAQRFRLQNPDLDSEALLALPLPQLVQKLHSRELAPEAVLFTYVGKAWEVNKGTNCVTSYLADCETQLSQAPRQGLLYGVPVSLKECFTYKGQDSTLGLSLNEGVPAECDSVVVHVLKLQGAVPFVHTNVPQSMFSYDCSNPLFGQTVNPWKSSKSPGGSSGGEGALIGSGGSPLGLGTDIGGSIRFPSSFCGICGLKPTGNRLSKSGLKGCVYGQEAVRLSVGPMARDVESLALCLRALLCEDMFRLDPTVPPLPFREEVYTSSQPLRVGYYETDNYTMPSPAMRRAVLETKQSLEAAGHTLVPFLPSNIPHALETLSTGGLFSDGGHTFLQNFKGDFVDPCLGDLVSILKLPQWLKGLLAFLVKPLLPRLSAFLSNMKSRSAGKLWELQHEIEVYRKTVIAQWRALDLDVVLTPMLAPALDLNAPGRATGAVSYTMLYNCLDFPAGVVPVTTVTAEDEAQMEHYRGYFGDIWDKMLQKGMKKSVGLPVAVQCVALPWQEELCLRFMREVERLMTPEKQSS
Sequence of FAAH (Mus musculus (Mouse), UniProt O08914) (O08914 whole entry): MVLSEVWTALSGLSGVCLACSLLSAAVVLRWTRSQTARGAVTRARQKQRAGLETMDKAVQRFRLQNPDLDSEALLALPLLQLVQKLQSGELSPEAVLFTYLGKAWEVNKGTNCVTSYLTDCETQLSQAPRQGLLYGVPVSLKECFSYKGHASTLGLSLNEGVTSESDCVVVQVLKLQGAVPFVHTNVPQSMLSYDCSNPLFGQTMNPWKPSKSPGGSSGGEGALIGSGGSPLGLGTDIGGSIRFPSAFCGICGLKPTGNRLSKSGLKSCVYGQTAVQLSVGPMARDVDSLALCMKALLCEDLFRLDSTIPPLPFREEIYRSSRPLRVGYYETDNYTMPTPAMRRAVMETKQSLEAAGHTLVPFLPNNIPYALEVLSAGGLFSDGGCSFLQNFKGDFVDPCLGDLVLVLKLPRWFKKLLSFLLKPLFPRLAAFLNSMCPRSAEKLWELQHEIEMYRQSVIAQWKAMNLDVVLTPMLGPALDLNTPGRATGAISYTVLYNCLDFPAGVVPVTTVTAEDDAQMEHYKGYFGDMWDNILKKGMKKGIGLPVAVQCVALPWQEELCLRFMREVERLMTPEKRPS
Sequence of MAGL (Homo sapiens (Human), UniProt Q99685) (Q99685 whole entry): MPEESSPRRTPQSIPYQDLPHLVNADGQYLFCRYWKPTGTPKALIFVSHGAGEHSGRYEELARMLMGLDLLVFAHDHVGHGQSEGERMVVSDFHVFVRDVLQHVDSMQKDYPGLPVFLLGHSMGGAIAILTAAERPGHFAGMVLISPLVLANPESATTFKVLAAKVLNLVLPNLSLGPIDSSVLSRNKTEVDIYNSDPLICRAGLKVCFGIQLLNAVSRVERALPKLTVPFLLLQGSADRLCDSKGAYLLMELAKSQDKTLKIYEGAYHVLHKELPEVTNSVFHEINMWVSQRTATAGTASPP

SMILES	inhibition at 1 µM (FAAH [1]) [%]	inhibition at 1 µM (MAGL [2]) [%]	inhibition at 1 µM (FAAH [3]) [%]	inhibition at 10 µM (MAGL [4]) [%]	inhibition at 1 µM (MAGL [4]) [%]	IC50 (FAAH [3]) [µM]	IC50 (MAGL [4]) [µM]
CS(=O)(=O)Nc1ccn(C(=O)N2CCC3(CCCN3Cc3ccc(C(F)(F)F)cc3NCCCC(=O)O)CC2)n1 [Example 1, 4-((2-((8-(3-(methylsulfonamido)-1H-pyrazole-1-carbonyl)-1,8-diazaspiro[4.5]decan-1-yl)methyl)-5-(trifluoromethyl)phenyl)amino)butanoic acid]	0 to 25	0 to 25	0 to 25	> 75			
CN(Cc1ccc(C(F)(F)F)c(N2CCC(F)CC2)c1)C1(C)CCN(C(=O)n2ccc(NS(C)(=O)=O)n2)CC1 [Example 2, N-(1-(4-((3-(4-fluoropiperidin-1-yl)-4-(trifluoromethyl)benzyl)(methyl)amino)-4-methylpiperidine-1-carbonyl)-1H-pyrazol-3-yl)methanesulfonamide]	0 to 25	> 75	0 to 25		> 75		
CS(=O)(=O)Nc1ccn(C(=O)N2CCC(Oc3ccc(C(F)(F)F)c(-c4nnco4)c3)CC2)n1 [Example 5, N-(1-(4-(3-(1,3,4-Oxadiazol-2-yl)-4-(trifluoromethyl)phenoxy)piperidine-1-carbonyl)-1H-pyrazol-3-yl)methanesulfonamide]	0 to 25	> 75	0 to 25		> 75		
CS(=O)(=O)Nc1ccn(C(=O)N2CCC(Oc3ccc(Cl)c(OC4CCCC4)c3)CC2)n1 [Example 6, N-(1-(4-(4-chloro-3-(cyclopentyloxy)phenoxy)piperidine-1-carbonyl)-1H-pyrazol-3-yl)methanesulfonamide]	0 to 25	> 75	0 to 25		> 75		
CS(=O)(=O)Nc1ccn(C(=O)N2CCC(Oc3cccc(C(F)(F)F)c3-c3nnco3)CC2)n1 [Example 7, N-(1-(4-(2-(1,3,4-oxadiazol-2-yl)-3-(trifluoromethyl)phenoxy)piperidine-1-carbonyl)-1H-pyrazol-3-yl)methanesulfonamide]	0 to 25	> 75	0 to 25		> 75		
CS(=O)(=O)Nc1ccn(C(=O)N2CCN(Cc3ccc(Cl)c(N4CC5(CCOCC5)C4)c3)CC2)n1 [Example 8, N-(1-(4-(4-chloro-3-(7-oxa-2-azaspiro[3.5]nonan-2-yl)benzyl)piperazine-1-carbonyl)-1H-pyrazol-3-yl)methanesulfonamide]	0 to 25	> 75	0 to 25		> 75		
CS(=O)(=O)Nc1ccn(C(=O)N2CCC(Oc3ccc(C(F)(F)F)cc3-c3nccs3)CC2)n1 [Example 15, N-(1-(4-(2-(thiazol-2-yl)-4-(trifluoromethyl)phenoxy)piperidine-1-carbonyl)-1H-pyrazol-3-yl)methanesulfonamide]	25 to 50	> 75	0 to 25		> 75		
CN(c1ccc(C(F)(F)F)cc1N1CCCC1)C1CCN(C(=O)n2ccc(NS(C)(=O)=O)n2)CC1 [Example 19, N-(1-(4-(methyl(2-(pyrrolidin-1-yl)-4-(trifluoromethyl)phenyl)amino)piperidine-1-carbonyl)-1H-pyrazol-3-yl)methanesulfonamide]	0 to 25	> 75	0 to 25		> 75		
CS(=O)(=O)Nc1ccn(C(=O)N2CCC(Oc3ccc(Cl)c(C4CCCC4)c3)CC2)n1 [Example 21, N-(1-(4-(4-chloro-3-cyclopentylphenoxy)piperidine-1-carbonyl)-1H-pyrazol-3-yl)methanesulfonamide]	0 to 25	> 75	0 to 25		> 75		
CC(=O)Nc1ccn(C(=O)N2CCC3(CCN(Cc4ccc(N5CCCC5)cc4C(F)(F)F)C3)CC2)n1 [Example 23, N-(1-(2-(4-(pyrrolidin-1-yl)-2-(trifluoromethyl)benzyl)-2,8-diazaspiro[4.5]decane-8-carbonyl)-1H-pyrazol-3-yl)acetamide]	> 75	> 75	> 75		> 75	0.1 to 1	< 0.1
CS(=O)(=O)Nc1ccn(C(=O)N2CCC(OCc3ccc(N4CCC(F)CC4)c(Cl)c3)CC2)n1 [Example 30, N-(1-(4-((3-chloro-4-(4-fluoropiperidin-1-yl)benzyl)oxy)piperidine-1-carbonyl)-1H-pyrazol-3-yl)methanesulfonamide]	> 75	> 75			> 75		
C[C@H]1CN(C(=O)n2ccc(NS(C)(=O)=O)n2)CCN1Cc1cnc(C(F)(F)F)c(N2CCC(F)CC2)c1 [Example 33, (S)—N-(1-(4-((5-(4-fluoropiperidin-1-yl)-6-(trifluoromethyl)pyridin-3-yl)methyl)-3-methylpiperazine-1-carbonyl)-1H-pyrazol-3-yl)methanesulfonamide]	0 to 25	> 75			> 75		

Results, then the compound that gave them:

inhibition at 1 µM (FAAH [1]) [%]	inhibition at 1 µM (MAGL [2]) [%]	inhibition at 1 µM (FAAH [3]) [%]	inhibition at 10 µM (MAGL [4]) [%]	inhibition at 1 µM (MAGL [4]) [%]	IC50 (FAAH [3]) [µM]	IC50 (MAGL [4]) [µM]	SMILES
0 to 25	> 75	0 to 25		> 75			CC(=O)Nc1ccn(C(=O)N2CCN(Cc3ccc(Cl)cc3OCC(=O)O)CC2)n1 [Example 3, 2-(2-((4-(3-acetamido-1H-pyrazole-1-carbonyl)piperazin-1-yl)methyl)-5-chlorophenoxy)acetic acid]
0 to 25	> 75	0 to 25		> 75			CS(=O)(=O)Nc1ccn(C(=O)N2CCN(Cc3ccc(Cl)c(N4CC5CN(C(N)=O)CC5C4)c3)CC2)n1 (stereo not shown) [Example 9, 5-(2-Chloro-5-((4-(3-(methylsulfonamido)-1H-pyrazole-1-carbonyl)piperazin-1-yl)methyl)phenyl)hexahydropyrrolo[3,4-c]pyrrole-2(1H)-carboxamide]
0 to 25	0 to 25	0 to 25	50 to 75				CS(=O)(=O)Nc1ccn(C(=O)N2CCN(Cc3ccc(C(N)=O)c(C(F)(F)F)c3)CC2)n1 [Example 10, 4-((4-(3-(methylsulfonamido)-1H-pyrazole-1-carbonyl)piperazin-1-yl)methyl)-2-(trifluoromethyl)benzamide]
25 to 50	> 75				1 to 10	< 0.1	CC(=O)Nc1ccn(C(=O)N2CCC3(CCCN3Cc3cc4cc(Cl)cc(Cl)c4[nH]3)CC2)n1 [Example 13, N-(1-(1-((5,7-dichloro-1H-indol-2-yl)methyl)-1,8-diazaspiro[4.5]decane-8-carbonyl)-1H-pyrazol-3-yl)acetamide]
25 to 50	> 75	25 to 50		> 75			CC(=O)Nc1ccn(C(=O)N2CC3CN(Cc4cc(Cl)cc(C(C)(C)O)c4)CC3C2)n1 (stereo not shown) [Example 16, N-(1-(5-(3-chloro-5-(2-hydroxypropan-2-yl)benzyl)octahydropyrrolo[3,4-c]pyrrole-2-carbonyl)-1H-pyrazol-3-yl)acetamide]
> 75	> 75	> 75		> 75			CC(=O)Nc1ccn(C(=O)N2CCN(Cc3cc(Cl)cc(Oc4ccc(Cl)cc4)c3)CC2)n1 [Example 17, N-(1-(4-(3-chloro-5-(4-chlorophenoxy)benzyl)piperazine-1-carbonyl)-1H-pyrazol-3-yl)acetamide]
> 75	> 75	> 75		> 75	0.1 to 1	< 0.1	CC(=O)Nc1ccn(C(=O)N2CC3CN(Cc4cccc(Oc5ccccc5Cl)c4)CC3C2)n1 (stereo not shown) [Example 18, N-(1-(5-(3-(2-chlorophenoxy)benzyl)octahydropyrrolo[3,4-c]pyrrole-2-carbonyl)-1H-pyrazol-3-yl)acetamide]
> 75	> 75	0 to 25		> 75	1 to 10	< 0.1	CC(=O)Nc1ccn(C(=O)N2CCC3(CCCN3C(=O)c3ccc(Cl)c(C4CC4)c3)CC2)n1 [Example 20, N-(1-(1-(4-chloro-3-cyclopropylbenzoyl)-1,8-diazaspiro[4.5]decane-8-carbonyl)-1H-pyrazol-3-yl)acetamide]
0 to 25	> 75	0 to 25		> 75			CC(=O)Nc1ccn(C(=O)N2CC3CN(Cc4ccc(Cl)c(C5(O)CCCC5)c4)CC3C2)n1 (stereo not shown) [Example 24, N-(1-(5-(4-Chloro-3-(1-hydroxycyclopentyl)benzyl)octahydropyrrolo[3,4-c]pyrrole-2-carbonyl)-1H-pyrazol-3-yl)acetamide]
0 to 25	0 to 25		0 to 25				C[C@@H]1C[C@H](N(C)Cc2ccc(Cl)c(N3CC4COCC4C3)c2)CCN1C(=O)n1ccc(NS(C)(=O)=O)n1 (stereo partly drawn) [Example 27, N-(1-((2R,4R)-4-((4-chloro-3-(tetrahydro-1H-furo[3,4-c]pyrrol-5(3H)-yl)benzyl)(methyl)amino)-2-methylpiperidine-1-carbonyl)-1H-pyrazol-3-yl)methanesulfonamide]

From patent publication US11149037B2, “Pyrazole MAGL inhibitors” (H. Lundbeck A/S, priority 2017, dated 2021)
